According to US8802597B2, “Herbicidal pyrimidines” (E I du Pont de Nemours and Company, priority 2003, dated 2014):

Legend:
Format in all cases: in vivo
[1] = system: Surinam grass (Brachiaria decumbens); assay: Test B pre/postemergence
Summary of the method: (§1)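 Pre: compound (non-phytotoxic solvent + surfactant) applied to freshly planted seeds. Post: same formulation sprayed on 2–18 cm plants, 1- to 4-leaf. Readout: visual control rating 0–100 vs controls, 13–15 d, greenhouse.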

[2] = system: barnyardgrass (Echinochloa crus-galli); assay: Test B pre/postemergence
Summary of the method: as §1

[3] = system: cocklebur (Xanthium strumarium); assay: Test B pre/postemergence
Summary of the method: as §1

[4] = system: corn (Zea mays); assay: Test B pre/postemergence
Summary of the method: as §1

[5] = system: crabgrass (Digitaria sanguinalis); assay: Test B pre/postemergence
Summary of the method: as §1

[6] = system: giant foxtail (Setaria faberii); assay: Test B pre/postemergence
Summary of the method: as §1

[7] = system: lambsquarters (Chenopodium album); assay: Test B pre/postemergence
Summary of the method: as §1

[8] = system: morningglory (Ipomoea coccinea); assay: Test B pre/postemergence
Summary of the method: as §1

[9] = system: pigweed (Amaranthus retroflexus); assay: Test B pre/postemergence
Summary of the method: as §1

[10] = system: velvetleaf (Abutilon theophrasti); assay: Test B pre/postemergence
Summary of the method: as §1

[11] = system: wheat (Triticum aestivum); assay: Test B pre/postemergence
Summary of the method: as §1

[12] = system: blackgrass (Alopecurus myosuroides); assay: Test B postemergence; details: for Blackgrass plant response rating: scale 0 to 100 (0 no effect, 100 complete control)
Summary of the method: as §1

[13] = system: wild oat (Avena fatua); assay: Test B postemergence; details: for Oat, Wild plant response rating: scale 0 to 100 (0 no effect, 100 complete control)
Summary of the method: as §1

[14] = system: barnyardgrass (Echinochloa crus-galli); assay: Test B flooded paddy test; details: Flood
Summary of the method: (§2)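 Rice, umbrella sedge, duck salad and barnyardgrass grown to 2-leaf stage under flooded paddy conditions and treated with formulated test chemicals. Kept in greenhouse 13–15 days, then visually rated against untreated controls on a 0–100 scale (0 no effect, 100 complete control).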

[15] = system: duck salad (Heteranthera limosa); assay: Test B flooded paddy test; details: Flood, scale 0 to 100
Summary of the method: as §2

[16] = system: rice (Oryza sativa); assay: Test B flooded paddy test; details: Flood, scale 0 to 100
Summary of the method: as §2

[17] = system: umbrella sedge (Cyperus difformis); assay: Test B flooded paddy test; details: Flood, scale 0 to 100
Summary of the method: as §2

[18] = Postemergence, 62 g ai/ha, scale 0 to 100 (0 no effect, 100 complete control)
[19] = Postemergence, 125 g ai/ha, scale 0 to 100 (0 no effect, 100 complete control)
[20] = Preemergence, 62 g ai/ha, scale 0 to 100, 0 no effect, 100 complete control
[21] = Preemergence, 125 g ai/ha, scale 0 to 100 (0 no effect, 100 complete control)
[22] = Postemergence, 500 g ai/ha, scale 0 to 100
[23] = Preemergence, 500 g ai/ha, scale 0 to 100 (0 no effect, 100 complete control)

## COC(=O)c1nc(-c2ccc(Cl)cc2)nc(N)c1Br [Compound 83]
[1]; [18]
  Surinam Grass plant response rating: 50
[1]; [19]
  Surinam Grass plant response rating: 60
[1]; [20]
  Plant response rating, Surinam Grass: 0
[1]; [21]
  Plant response rating, Surinam Grass: 10
[2]; [18]
  Barnyardgrass plant response rating: 50
[2]; [19]
  Barnyardgrass plant response rating: 80
[2]; [20]
  Plant response rating, Barnyardgrass: 20
[2]; [21]
  Plant response rating, Barnyardgrass: 30
[3]; [18]
  Cocklebur plant response rating: 90
[3]; [19]
  Cocklebur plant response rating: 100
[3]; [20]
  Plant response rating, Cocklebur: 10
[3]; [21]
  Plant response rating, Cocklebur: 50
[4]; [18]
  Corn plant response rating: 10
[4]; [19]
  Corn plant response rating: 10
[4]; [20]
  Plant response rating, Corn: 0
[4]; [21]
  Plant response rating, Corn: 0
[5]; [18]
  Crabgrass plant response rating: 50
[5]; [19]
  Crabgrass plant response rating: 60
[5]; [20]
  Plant response rating, Crabgrass: 30
[5]; [21]
  Plant response rating, Crabgrass: 60
[6]; [18]
  Foxtail, Giant plant response rating: 40
[6]; [19]
  Foxtail, Giant plant response rating: 50
[6]; [20]
  Plant response rating, Foxtail, Giant: 0
[6]; [21]
  Plant response rating, Foxtail, Giant: 10
[7]; [18]
  Lambsquarters plant response rating: 100
[7]; [19]
  Lambsquarters plant response rating: 100
[7]; [20]
  Plant response rating, Lambsquarters: 70
[7]; [21]
  Plant response rating, Lambsquarters: 90
[8]; [18]
  Morningglory plant response rating: 60
[8]; [19]
  Morningglory plant response rating: 100
[8]; [20]
  Plant response rating, Morningglory: 0
[8]; [21]
  Plant response rating, Morningglory: 10
[9]; [18]
  Pigweed plant response rating: 100
[9]; [19]
  Pigweed plant response rating: 100
[9]; [20]
  Plant response rating, Pigweed: 80
[9]; [21]
  Plant response rating, Pigweed: 100
[10]; [18]
  Velvetleaf plant response rating: 80
[10]; [19]
  Velvetleaf plant response rating: 90
[10]; [20]
  Plant response rating, Velvetleaf: 50
[10]; [21]
  Plant response rating, Velvetleaf: 60
[11]; [18]
  Wheat plant response rating: 0
[11]; [19]
  Wheat plant response rating: 30
[11]; [20]
  Plant response rating, Wheat: 20
[11]; [21]
  Plant response rating, Wheat: 50
[12]; 62 g ai/ha
  Blackgrass plant response rating: 50
[12]; 125 g ai/ha
  Blackgrass plant response rating: 60
[13]; 62 g ai/ha
  Oat, Wild plant response rating: 0
[13]; 125 g ai/ha
  Oat, Wild plant response rating: 40
[14]; 125 g ai/ha, scale 0 to 100
  Plant response rating, Barnyardgrass: 0
[14]; 500 g ai/ha, scale 0 to 100
  Plant response rating, Barnyardgrass: 0
[15]; 125 g ai/ha
  Plant response rating, Ducksalad: 100
[15]; 500 g ai/ha
  Plant response rating, Ducksalad: 100
[16]; 125 g ai/ha
  Plant response rating, Rice: 0
[16]; 500 g ai/ha
  Plant response rating, Rice: 0
[17]; 125 g ai/ha
  Plant response rating, Sedge, Umbrella: 90
[17]; 500 g ai/ha
  Plant response rating, Sedge, Umbrella: 100

## CCOC(=O)Cc1nc(C2CC2)nc(N=CN(C)C)c1Br [Compound 33]
[1]; [19]
  Surinam Grass plant response rating: 0
[1]; [22]
  Plant response rating, Surinam Grass: 0
[1]; [21]
  Plant response rating, Surinam Grass: 0
[1]; [23]
  Surinam Grass plant response rating: 40
[2]; [19]
  Barnyardgrass plant response rating: 0
[2]; [22]
  Plant response rating, Barnyardgrass: 20
[2]; [21]
  Plant response rating, Barnyardgrass: 20
[2]; [23]
  Barnyardgrass plant response rating: 50
[3]; [19]
  Cocklebur plant response rating: 60
[3]; [22]
  Plant response rating, Cocklebur: 80
[3]; [21]
  Plant response rating, Cocklebur: 80
[3]; [23]
  Cocklebur plant response rating: 90
[4]; [19]
  Corn plant response rating: 0
[4]; [22]
  Plant response rating, Corn: 0
[4]; [21]
  Plant response rating, Corn: 10
[4]; [23]
  Corn plant response rating: 30
[5]; [19]
  Crabgrass plant response rating: 10
[5]; [22]
  Plant response rating, Crabgrass: 20
[5]; [21]
  Plant response rating, Crabgrass: 0
[5]; [23]
  Crabgrass plant response rating: 50
[6]; [19]
  Foxtail, Giant plant response rating: 10
[6]; [22]
  Plant response rating, Foxtail, Giant: 40
[6]; [21]
  Plant response rating, Foxtail, Giant: 0
[6]; [23]
  Foxtail, Giant plant response rating: 40
[7]; [19]
  Lambsquarters plant response rating: 60
[7]; [22]
  Plant response rating, Lambsquarters: 70
[7]; [21]
  Plant response rating, Lambsquarters: 90
[7]; [23]
  Lambsquarters plant response rating: 100
[8]; [19]
  Morningglory plant response rating: 40
[8]; [22]
  Plant response rating, Morningglory: 70
[8]; [21]
  Plant response rating, Morningglory: 0
[8]; [23]
  Morningglory plant response rating: 90
[9]; [19]
  Pigweed plant response rating: 60
[9]; [22]
  Plant response rating, Pigweed: 80
[9]; [21]
  Plant response rating, Pigweed: 80
[9]; [23]
  Pigweed plant response rating: 90
[10]; [19]
  Velvetleaf plant response rating: 40
[10]; [22]
  Plant response rating, Velvetleaf: 50
[10]; [21]
  Plant response rating, Velvetleaf: 70
[10]; [23]
  Velvetleaf plant response rating: 80
[11]; [19]
  Wheat plant response rating: 20
[11]; [22]
  Plant response rating, Wheat: 20
[11]; [21]
  Plant response rating, Wheat: 0
[11]; [23]
  Wheat plant response rating: 50
[12]; 125 g ai/ha
  Blackgrass plant response rating: 40
[12]; 500 g ai/ha, scale 0 to 100
  Plant response rating, Blackgrass: 40
[13]; 125 g ai/ha
  Oat, Wild plant response rating: 20
[13]; 500 g ai/ha, scale 0 to 100
  Plant response rating, Oat, Wild: 20
[14]; 1000 g ai/ha, scale 0 (no effect) to 100 (complete control)
  Plant response rating, Barnyardgrass: 0
[15]; 1000 g ai/ha
  Plant response rating, Ducksalad: 0
[16]; 1000 g ai/ha
  Plant response rating, Rice: 0
[17]; 1000 g ai/ha
  Plant response rating, Sedge, Umbrella: 0
